Laboratory results as given in patent US10479808B1, “Bisphosphonate-based coordination complexes as enhanced pharmaceutical formulations and method of preparing the same” (University of Puerto Rico, priority 2018, dated 2019).
Entries after “also recorded” stand apart in the source; their conditions may differ.

Legend:
Format in all cases: physicochemical
[1] = Thermal stability by thermal gravimetric analysis (TGA) under N2
Procedure: Thermographs were recorded in a TGA Q500 (TA Instruments Inc.). Thermograph of the BP and pBioCCs were collected using a temperature range of 30-700° C. at 5° C./min under a N2 gas purge. In all cases, ˜10 mg of powder sample was thermally treated. Data was analyzed with TA Universal Analysis software version 4.3A.
It was expected that the thermograph of each pBioCCs consists of at least two mayor decomposition profiles one at lower temperature representing the loss of coordinated or lattice water molecules, and another at higher temperature which accounts for the thermal combustion of the organic moiety, the BP ligand, in this case ALEN. A third decomposition event might be observed above 350° C., due to the thermal degradation of the metal/metal oxide.

[2] = Dissolution profile in PBS (pH 7.40), ALEN-Cu complexation, UV-Vis; details: for order of structural stability of the complexes: PBS pH 7.40, from dissolution profiles
[3] = Dissolution profile in FaSSGF (pH 1.60), ALEN-Cu complexation, UV-Vis; details: for order of structural stability of the complexes: FaSSGF pH 1.60, from dissolution profiles

Row | Structure (SMILES) | thermal stability (in words) [1] | order of structural stability of the complexes [2] | order of structural stability of the complexes [3] | time to reach maximum release ([2]; PBS pH 7.40, 37 °C) [min] | time to reach maximum release ([3]; FaSSGF pH 1.60, 37 °C) [s]
1 | NCCCC(O)(P(=O)([O-])O)P(=O)([O-])O.O.[Ca+2] [ALEN-Ca form I] | high thermal stability | ALEN-Mg<ALEN-Ca form I<ALEN-Ca form II<ALEN-Zn form I<ALEN-Zn form II | less stable; also recorded: ALEN-Ca form I<ALEN-Ca form II<ALEN-Zn form I<ALEN-Mg<ALEN-Zn form II | – | –
2 | NCCCC(O)(P(=O)([O-])O)P(=O)([O-])O.O.[Zn+2] [ALEN-Zn form I] | high thermal stability | ALEN-Mg<ALEN-Ca form I<ALEN-Ca form II<ALEN-Zn form I<ALEN-Zn form II | ALEN-Ca form I<ALEN-Ca form II<ALEN-Zn form I<ALEN-Mg<ALEN-Zn form II | – | –
3 | NCCCC(O)(P(=O)(O)O)P(=O)(O)O [ALEN, Alendronate sodium trihydrate, reference compound] | – | – | – | 10 | 10
